The record followed here is ChEMBL document CHEMBL3044907, “Sensitivity of Fusarium verticillioides isolates from rice to a novel cyanoacrylate fungicide” (Crop Prot, 2012).

Series [1] deals with Fusarium verticillioides. Kind of series: Fungicidal activity against Fusarium verticilliodes isolate YZ22 in rice seeds harvested from bakane diseased plants assessed as number of seedlings abnormally elongated or exhibiting symptoms of damping-off at 25 ug/ml at 30 degC incubated for 72 hr measured after 3 days under greenhouse trials (reference value: 22.5%). Format: functional.

Series [2] relates to Fusarium verticillioides. Put plainly: Fungicidal activity against Fusarium verticilliodes isolate YZ26 in rice seeds harvested from bakane diseased plants assessed as number of seedlings abnormally elongated or exhibiting symptoms of damping-off at 6.25 ug/ml at 30 degC incubated for 72 hr measured after 3 days under greenhouse trials (reference value: 49.3%). It is filed as functional.

Series [3] relates to Fusarium verticillioides. Kind of series: Fungicidal activity against Fusarium verticilliodes isolate YZ06 in rice seeds harvested from bakane diseased plants assessed as number of seedlings abnormally elongated or exhibiting symptoms of damping-off at 12.5 ug/ml at 30 degC incubated for 72 hr measured after 3 days under greenhouse trials (reference value: 45.3%). It is filed as functional.

For series [4], the system named is Fusarium verticillioides. Kind of series: Fungicidal activity against Fusarium verticilliodes isolate YZ13 in rice seeds harvested from bakane diseased plants assessed as number of seedlings abnormally elongated or exhibiting symptoms of damping-off at 12.5 ug/ml at 30 degC incubated for 72 hr measured after 3 days under greenhouse trials (reference value: 26.8%). Format: functional.

Series [5] relates to Fusarium verticillioides. Put plainly: Fungicidal activity against Fusarium verticilliodes isolate YZ02 in rice seeds harvested from bakane diseased plants assessed as number of seedlings abnormally elongated or exhibiting symptoms of damping-off at 12.5 ug/ml at 30 degC incubated for 72 hr measured after 3 days under greenhouse trials (reference value: 29.8%). Format: functional.

The test system of series [6] is Fusarium verticillioides. Put plainly: Fungicidal activity against Fusarium verticilliodes isolate YZ06 in rice seeds harvested from bakane diseased plants assessed as number of seedlings abnormally elongated or exhibiting symptoms of damping-off at 6.25 ug/ml at 30 degC incubated for 72 hr measured after 3 days under greenhouse trials (reference value: 45.3%). It is filed as functional.

The test system of series [7] is Fusarium verticillioides. Kind of series: Fungicidal activity against Fusarium verticilliodes isolate YZ09 in rice seeds harvested from bakane diseased plants assessed as number of seedlings abnormally elongated or exhibiting symptoms of damping-off at 12.5 ug/ml at 30 degC incubated for 72 hr measured after 3 days under greenhouse trials (reference value: 17.5%). It is filed as functional.

Series [8] concerns Fusarium verticillioides. Put plainly: Fungicidal activity against Fusarium verticilliodes isolate YZ01 in rice seeds harvested from bakane diseased plants assessed as number of seedlings abnormally elongated or exhibiting symptoms of damping-off at 25 ug/ml at 30 degC incubated for 72 hr measured after 3 days under greenhouse trials (reference value: 33.6%). Format: functional.

The test system of series [9] is Fusarium verticillioides. Kind of series: Fungicidal activity against Fusarium verticilliodes isolate N03 in rice seeds harvested from bakane diseased plants assessed as number of seedlings abnormally elongated or exhibiting symptoms of damping-off at 25 ug/ml at 30 degC incubated for 72 hr measured after 3 days under greenhouse trials (reference value: 36.1%). It is filed as functional.

In series [10] the test system is Fusarium verticillioides. Put plainly: Fungicidal activity against Fusarium verticilliodes isolate YZ13 in rice seeds harvested from bakane diseased plants assessed as number of seedlings abnormally elongated or exhibiting symptoms of damping-off at 6.25 ug/ml at 30 degC incubated for 72 hr measured after 3 days under greenhouse trials (reference value: 26.8%). Format: functional.

In series [11] the test system is Fusarium verticillioides. Put plainly: Fungicidal activity against Fusarium verticilliodes isolate JS08 in rice seeds harvested from bakane diseased plants assessed as number of seedlings abnormally elongated or exhibiting symptoms of damping-off at 8.33 ug/ml at 30 degC incubated for 72 hr measured after 3 days under greenhouse trials (reference value: 13.0%). Format: functional.

Series [12] deals with Fusarium verticillioides. Put plainly: Fungicidal activity against Fusarium verticilliodes isolate N06 in rice seeds harvested from bakane diseased plants assessed as number of seedlings abnormally elongated or exhibiting symptoms of damping-off at 12.5 ug/ml at 30 degC incubated for 72 hr measured after 3 days under greenhouse trials (reference value: 9.6%). It is filed as functional.

The subject of series [13] is Fusarium verticillioides. Kind of series: Fungicidal activity against Fusarium verticilliodes isolate YZ12 in rice seeds harvested from bakane diseased plants assessed as number of seedlings abnormally elongated or exhibiting symptoms of damping-off at 8.33 ug/ml at 30 degC incubated for 72 hr measured after 3 days under greenhouse trials (reference value: 45.8%). Format: functional.

For series [14], the system named is Fusarium verticillioides. Kind of series: Fungicidal activity against Fusarium verticilliodes isolate YZ05 in rice seeds harvested from bakane diseased plants assessed as number of seedlings abnormally elongated or exhibiting symptoms of damping-off at 8.33 ug/ml at 30 degC incubated for 72 hr measured after 3 days under greenhouse trials (reference value: 33.3%). It is filed as functional.

The test system of series [15] is Fusarium verticillioides. Put plainly: Fungicidal activity against Fusarium verticilliodes isolate JS06 in rice seeds harvested from bakane diseased plants assessed as number of seedlings abnormally elongated or exhibiting symptoms of damping-off at 6.25 ug/ml at 30 degC incubated for 72 hr measured after 3 days under greenhouse trials (reference value: 25.2%). Format: functional.

The subject of series [16] is Fusarium verticillioides. Put plainly: Fungicidal activity against Fusarium verticilliodes isolate YZ10 in rice seeds harvested from bakane diseased plants assessed as number of seedlings abnormally elongated or exhibiting symptoms of damping-off at 6.25 ug/ml at 30 degC incubated for 72 hr measured after 3 days under greenhouse trials (reference value: 49.2%). It is filed as functional.

The subject of series [17] is Fusarium verticillioides. Kind of series: Fungicidal activity against Fusarium verticilliodes isolate YZ11 in rice seeds harvested from bakane diseased plants assessed as number of seedlings abnormally elongated or exhibiting symptoms of damping-off at 6.25 ug/ml at 30 degC incubated for 72 hr measured after 3 days under greenhouse trials (reference value: 33.7%). It is filed as functional.

Series [18] has as its system Fusarium verticillioides. Kind of series: Fungicidal activity against Fusarium verticilliodes isolate YZ12 in rice seeds harvested from bakane diseased plants assessed as number of seedlings abnormally elongated or exhibiting symptoms of damping-off at 25 ug/ml at 30 degC incubated for 72 hr measured after 3 days under greenhouse trials (reference value: 45.8%). Format: functional.

In another series the test system is Oryza sativa. Kind of series: Effect on germination of healthy Oryza sativa (rice) seed cultivar Xinliangyou 6 at 6.25 to 25 ug/ml at 25 degC after 72 hr. To be noted: in vivo. Format: ADME, organism-based.
In series [19] the test system is Fusarium verticillioides. Kind of series: Fungicidal activity against Fusarium verticilliodes isolate YZ12 in rice seeds harvested from bakane diseased plants assessed as number of seedlings abnormally elongated or exhibiting symptoms of damping-off at 6.25 ug/ml at 30 degC incubated for 72 hr measured after 3 days under greenhouse trials (reference value: 45.8%). Format: functional.

In series [20] the test system is Fusarium verticillioides. Put plainly: Fungicidal activity against Fusarium verticilliodes isolate N02 in rice seeds harvested from bakane diseased plants assessed as number of seedlings abnormally elongated or exhibiting symptoms of damping-off at 8.33 ug/ml at 30 degC incubated for 72 hr measured after 3 days under greenhouse trials (reference value: 41.2%). Format: functional.

The subject of series [21] is Fusarium verticillioides. Put plainly: Fungicidal activity against Fusarium verticilliodes isolate YZ04 in rice seeds harvested from bakane diseased plants assessed as number of seedlings abnormally elongated or exhibiting symptoms of damping-off at 8.33 ug/ml at 30 degC incubated for 72 hr measured after 3 days under greenhouse trials (reference value: 44.2%). Format: functional.

The test system of series [22] is Fusarium verticillioides. Kind of series: Fungicidal activity against Fusarium verticilliodes isolate JS07 in rice seeds harvested from bakane diseased plants assessed as number of seedlings abnormally elongated or exhibiting symptoms of damping-off at 6.25 ug/ml at 30 degC incubated for 72 hr measured after 3 days under greenhouse trials (reference value: 33.8%). It is filed as functional.

Series [23] relates to Fusarium verticillioides. Put plainly: Fungicidal activity against Fusarium verticilliodes isolate N05 in rice seeds harvested from bakane diseased plants assessed as number of seedlings abnormally elongated or exhibiting symptoms of damping-off at 12.5 ug/ml at 30 degC incubated for 72 hr measured after 3 days under greenhouse trials (reference value: 6.2%). It is filed as functional.

Consider `CCOC(=O)/C(C#N)=C(/N)c1ccccc1`, for which the Activity in the series on Fusarium verticillioides [1] is reported as 0%; with Fusarium verticillioides [2], 4.1%; in the series with Fusarium verticillioides [3], 0%; in the series with Fusarium verticillioides [4] it was 0%; with Fusarium verticillioides [5], 0%; with Fusarium verticillioides [6], 1%. For the same compound, the Activity in the series on Fusarium verticillioides [7] is on record as 0%; in the series with Fusarium verticillioides [8], 0%; in the series on Fusarium verticillioides [9] it was 0%; in the series on Fusarium verticillioides [10], 0.8%; in the series on Fusarium verticillioides [11], 0%; in the series with Fusarium verticillioides [12] it was 0%. Further, the Activity with Fusarium verticillioides [13] came out at 1.4%; in the series on Fusarium verticillioides [14] it was 0%; with Fusarium verticillioides [15], 1.7%; in the series on Fusarium verticillioides [16], 3.8%; in the series on Fusarium verticillioides [17], 4.5%; in the series on Fusarium verticillioides [18], 0%. Also, the Activity entry in the series on Oryza sativa is reported as “Non-toxic”; in the series on Fusarium verticillioides [19], 3.2%; with Fusarium verticillioides [20], 0%; in the series with Fusarium verticillioides [21] it was 0%; in the series with Fusarium verticillioides [22], 1.3%; with Fusarium verticillioides [23] it was 0%.
